{"source": "paper PMC11897524", "about": "(Frontiers in Pharmacology, 2025)", "key": {"CAKI-2 xenograft tumors": {"test_system": "CAKI-2 xenograft tumors", "assay": "CAKI-2 cell-derived xenograft model", "assay_type": "in vivo, BALB/c nude mice", "settings": "10 mg/kg intraperitoneally every 12 h, nude mice", "method": "(§1) To further investigate the in vivo effects of BST-4, 6–8 weeks male BALB/c nude mice were obtained by Changzhou Cavens Experimental Animal Co., Ltd. (Changzhou, China). The mice were acclimatized to the laboratory environment for a week before the experiment. The housing conditions were maintained at a temperature of 22°C ± 2°C, a relative humidity of 50%–60%, and a 12-h light/dark cycle. 0.1 mL of CAKI-2cell suspension (1 × 10⁶ cells) was subcutaneously injected into the right flank of each mouse. […] The vehicle group was injected with a vehicle solution consisting of 5% DMSO and PBS. The tumor volume of mice was measured every 2 days and calculated according to the formula: (c × c × d)/2, where c and d represent the minimum diameter and maximum diameter, respectively. All animal experiments were performed and approved by the Ethics Committee of China Pharmaceutical University."}, "BRD4": {"biological_target": "BRD4 (Homo sapiens, UniProt O60885)", "assay": "AlphaScreen BRD4 binding inhibition assay", "parameters": "purchased Abcam", "quoted_text": "The inhibitory effect was measured through the previously described the amplified luminescent proximity homogeneous assay (AlphaScreen) ([Feng et al., 2018]). First, the compounds were diluted twofold to different concentrations (64, 32, 16, 8, 4, 2, 1, 0.5, 0.25, 0.125, 0.0625 nM) and each was incubated with BRD4 protein at a concentration of 12.5 nM for 15 min at room temperature. Biotin-labeled peptide (SGRG-K(Ac)-GG-K(Ac)-GLG-K(Ac)-GGA-K (Ac)-RHRKVGG-K-biotin) was added for 10 min, followed by streptavidin donor beads and AlphaScreen nickel chelate acceptor and incubation for 1h. All components were incubated in a total volume of 20 μL assay buffer containing 20 mM HEPES, pH 7.4, 0.1% bovine serum albumin (BSA, w/v), 0.01% Triton X-100, and 1 mM DTT. Finally, counts were measured by EnVision (Perkin Elmer, Hopkinton, MA) and analyzed by Graphpad Prism 7.0 software."}, "CAKI-2 cells": {"test_system": "CAKI-2 cells", "assay": "MTT cytotoxicity assay", "assay_type": "cell-based, human", "method": "Human normal renal cortical proximal tubular epithelial cell line HK-2 and human renal carcinoma cell lines CAKI-2, SLR-23, 769-P, A704 and RCC4 were previously purchased from the American Type Culture Collection (ATCC, Manassas, VA, USA) or the European Collection of Cell Cultures (ECACC, Salisbury, United Kingdom). HK2, A704, and RCC4 cells were maintained in high glucose DMEM supplemented with 10% FBS and 1% penicillin/streptomycin. SLR-23 and […] cells were cultured in RPMI-1640 medium with 10% FBS and 1% penicillin/streptomycin. CAKI-2 cells were maintained in McCoy’s 5A medium supplemented with 10% FBS and 1% penicillin/streptomycin. All the cell lines were cultured at 37°C in a humidified atmosphere of 5% CO2 and 95% air.\n(§2) The effect of hit compounds on cytotoxicity was determined as previously reported ([Ding et al., 2020]). In brief, cells treated with the tested compounds were added with MTT reagent to form formazan crystals, and then the optical density (OD) values at 570 nm were determined after the crystals were dissolved in DMSO. […] Next, the values of IC50 of the selected compounds against more RCC cell lines were determined. The 5 × 10^3 cells in 100 μL culture medium were injected into each well of a 96-well plate and cultured overnight. Add different concentrations of compounds and incubate for 48 h. Then 100 μL of MTT (0.5 mg/mL) solution was added to the 96-well plate and maintained at 37°C for 4 h. Finally, 200 μL of DMSO was added and shaken for 10 min. The OD values at 570 nm were determined by a Synergy 4 microplate reader."}, "[1]": {"assay": "Hematology parameters of treated mice", "assay_type": "in vivo, BALB/c nude mice", "settings": "BST-4-treated vs vehicle groups", "method": "as §1\nFIGURE 12 Hematology parameters of mice in the BST-4-treated groups and vehicle groups. (A) White blood cell (WBC); (B) Red blood cells (RBC); (C) Platelets (PLT); (D) Hemoglobin (HGB). Data are presented as the mean ± SD, n = 5."}, "STAT1": {"biological_target": "STAT1 (Homo sapiens, UniProt P42224)", "assay": "Binding affinity to BET and STAT family members"}, "EPHA7": {"biological_target": "EPHA7 (Homo sapiens, UniProt Q15375)", "sequence (Q15375 28-998)": "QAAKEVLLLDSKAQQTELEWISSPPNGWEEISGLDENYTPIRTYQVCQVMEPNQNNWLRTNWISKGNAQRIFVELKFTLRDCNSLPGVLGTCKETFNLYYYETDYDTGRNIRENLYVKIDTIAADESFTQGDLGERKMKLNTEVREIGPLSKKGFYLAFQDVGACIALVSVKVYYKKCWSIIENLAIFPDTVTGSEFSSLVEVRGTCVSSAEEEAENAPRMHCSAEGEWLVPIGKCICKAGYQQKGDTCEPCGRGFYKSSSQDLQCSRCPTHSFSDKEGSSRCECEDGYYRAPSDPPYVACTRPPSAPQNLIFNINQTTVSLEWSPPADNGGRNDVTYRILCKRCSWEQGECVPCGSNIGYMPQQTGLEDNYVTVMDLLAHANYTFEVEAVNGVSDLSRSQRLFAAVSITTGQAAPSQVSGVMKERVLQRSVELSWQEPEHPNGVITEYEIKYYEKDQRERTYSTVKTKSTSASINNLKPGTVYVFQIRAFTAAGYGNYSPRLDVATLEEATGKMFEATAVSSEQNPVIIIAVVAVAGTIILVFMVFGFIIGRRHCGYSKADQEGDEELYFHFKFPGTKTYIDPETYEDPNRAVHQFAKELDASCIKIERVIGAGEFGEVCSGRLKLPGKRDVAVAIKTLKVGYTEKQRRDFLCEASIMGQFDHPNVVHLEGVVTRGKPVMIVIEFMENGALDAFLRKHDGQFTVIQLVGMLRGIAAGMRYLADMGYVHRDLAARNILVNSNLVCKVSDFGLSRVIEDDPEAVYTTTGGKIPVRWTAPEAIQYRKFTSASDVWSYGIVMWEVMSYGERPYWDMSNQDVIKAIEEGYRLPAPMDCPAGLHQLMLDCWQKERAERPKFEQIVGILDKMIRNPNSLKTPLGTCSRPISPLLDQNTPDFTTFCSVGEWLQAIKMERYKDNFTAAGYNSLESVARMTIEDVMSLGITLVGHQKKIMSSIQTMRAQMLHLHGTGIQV", "assay": "SelectScreen Z′-LYTE kinase assay", "assay_type": "biochemical", "method_in_brief": "(§3)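 The compound was diluted 3-fold across 10 concentrations starting at 50 µM, then mixed with kinase and ATP. After a 60 min room-temperature reaction, developing reagent was added for 1 h and fluorescence read. Inhibition rates and IC50 were obtained from curve fits.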"}, "FLT1": {"biological_target": "FLT1 (Homo sapiens, UniProt P17948)", "sequence (P17948 27-1338)": "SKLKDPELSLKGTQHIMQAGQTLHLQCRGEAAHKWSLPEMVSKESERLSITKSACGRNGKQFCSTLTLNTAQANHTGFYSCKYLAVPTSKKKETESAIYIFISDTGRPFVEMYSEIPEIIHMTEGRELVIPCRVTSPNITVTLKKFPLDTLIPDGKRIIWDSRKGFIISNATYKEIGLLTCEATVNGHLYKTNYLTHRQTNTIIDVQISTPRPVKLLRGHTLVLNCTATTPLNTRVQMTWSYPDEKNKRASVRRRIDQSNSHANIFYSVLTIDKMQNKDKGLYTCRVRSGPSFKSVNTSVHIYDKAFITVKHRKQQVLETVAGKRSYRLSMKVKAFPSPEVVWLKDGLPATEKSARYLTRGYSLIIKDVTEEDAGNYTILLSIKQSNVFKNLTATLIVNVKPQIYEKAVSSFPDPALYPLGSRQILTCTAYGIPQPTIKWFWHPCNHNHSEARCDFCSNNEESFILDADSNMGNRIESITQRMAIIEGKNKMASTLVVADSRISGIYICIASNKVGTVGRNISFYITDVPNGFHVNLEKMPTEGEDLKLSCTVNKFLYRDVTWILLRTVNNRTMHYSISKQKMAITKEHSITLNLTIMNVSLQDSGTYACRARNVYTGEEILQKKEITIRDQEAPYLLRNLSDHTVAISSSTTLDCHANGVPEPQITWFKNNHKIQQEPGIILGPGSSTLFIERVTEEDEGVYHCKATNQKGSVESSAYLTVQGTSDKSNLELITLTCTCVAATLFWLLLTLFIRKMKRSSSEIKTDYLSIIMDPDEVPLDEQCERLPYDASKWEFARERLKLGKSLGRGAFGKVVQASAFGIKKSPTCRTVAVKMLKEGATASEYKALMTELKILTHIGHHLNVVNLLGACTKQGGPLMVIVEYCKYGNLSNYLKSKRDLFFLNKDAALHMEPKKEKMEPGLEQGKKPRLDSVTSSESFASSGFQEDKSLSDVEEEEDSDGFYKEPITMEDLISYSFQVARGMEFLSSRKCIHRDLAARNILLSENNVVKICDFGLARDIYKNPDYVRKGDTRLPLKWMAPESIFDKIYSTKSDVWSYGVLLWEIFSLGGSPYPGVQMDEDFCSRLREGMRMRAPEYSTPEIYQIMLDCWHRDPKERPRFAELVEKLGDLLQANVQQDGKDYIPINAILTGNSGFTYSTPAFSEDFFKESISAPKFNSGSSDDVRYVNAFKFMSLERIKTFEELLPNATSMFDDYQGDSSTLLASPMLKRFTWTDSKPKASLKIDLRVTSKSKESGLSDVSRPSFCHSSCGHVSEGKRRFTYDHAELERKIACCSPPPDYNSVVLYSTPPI", "assay": "SelectScreen Z′-LYTE kinase assay", "assay_type": "biochemical", "method_in_brief": "as §3"}, "LTK": {"biological_target": "LTK (Homo sapiens, UniProt P29376)", "sequence (P29376 17-864)": "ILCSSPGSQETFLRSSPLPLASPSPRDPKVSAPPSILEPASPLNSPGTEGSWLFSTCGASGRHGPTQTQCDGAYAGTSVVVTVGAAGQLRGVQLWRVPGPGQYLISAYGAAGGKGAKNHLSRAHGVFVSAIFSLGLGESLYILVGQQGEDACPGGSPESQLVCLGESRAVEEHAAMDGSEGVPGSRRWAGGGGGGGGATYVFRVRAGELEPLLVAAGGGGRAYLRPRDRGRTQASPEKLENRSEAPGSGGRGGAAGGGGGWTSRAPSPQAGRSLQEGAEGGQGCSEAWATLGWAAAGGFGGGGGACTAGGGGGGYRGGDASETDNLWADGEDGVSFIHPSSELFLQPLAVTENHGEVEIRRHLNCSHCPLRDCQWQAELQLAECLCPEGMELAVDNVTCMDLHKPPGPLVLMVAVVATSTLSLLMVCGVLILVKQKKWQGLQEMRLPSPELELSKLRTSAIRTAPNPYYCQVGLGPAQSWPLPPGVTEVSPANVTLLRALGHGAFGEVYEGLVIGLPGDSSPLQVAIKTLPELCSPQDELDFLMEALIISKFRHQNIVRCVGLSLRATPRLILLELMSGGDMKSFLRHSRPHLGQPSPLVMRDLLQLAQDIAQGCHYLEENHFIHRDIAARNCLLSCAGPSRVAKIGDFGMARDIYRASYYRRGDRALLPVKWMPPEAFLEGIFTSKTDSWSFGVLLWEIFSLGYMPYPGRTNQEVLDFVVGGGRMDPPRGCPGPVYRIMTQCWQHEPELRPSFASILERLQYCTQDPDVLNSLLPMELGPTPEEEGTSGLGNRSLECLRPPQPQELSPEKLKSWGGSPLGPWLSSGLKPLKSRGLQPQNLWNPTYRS", "assay": "SelectScreen Z′-LYTE kinase assay", "assay_type": "biochemical", "method_in_brief": "as §3"}, "FRK": {"biological_target": "FRK (Homo sapiens, UniProt P42685)", "sequence (P42685 whole entry)": "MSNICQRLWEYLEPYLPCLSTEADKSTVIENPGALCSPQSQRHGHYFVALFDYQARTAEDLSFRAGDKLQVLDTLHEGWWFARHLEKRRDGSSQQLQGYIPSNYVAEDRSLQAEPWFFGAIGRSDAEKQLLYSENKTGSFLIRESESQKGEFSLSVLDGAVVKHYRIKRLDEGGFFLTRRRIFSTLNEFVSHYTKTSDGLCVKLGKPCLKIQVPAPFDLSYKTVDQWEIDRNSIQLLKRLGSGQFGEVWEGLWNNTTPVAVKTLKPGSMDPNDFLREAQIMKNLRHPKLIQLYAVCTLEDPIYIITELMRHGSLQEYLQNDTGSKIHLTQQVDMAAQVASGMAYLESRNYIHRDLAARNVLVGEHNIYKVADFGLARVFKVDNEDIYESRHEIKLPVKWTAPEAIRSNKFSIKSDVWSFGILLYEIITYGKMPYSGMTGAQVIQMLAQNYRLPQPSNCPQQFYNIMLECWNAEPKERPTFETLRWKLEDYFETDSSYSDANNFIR", "assay": "SelectScreen Z′-LYTE kinase assay", "assay_type": "biochemical", "method_in_brief": "as §3"}, "STAT3 phosphorylation": {"test_system": "STAT3 phosphorylation", "assay": "Western blot of phosphorylated STAT3 in CAKI-2 cells", "assay_type": "cell-based, human", "settings": "100 nM, 24 h", "method": "For the assessment of protein expression levels, Western blot analysis was conducted following a standardized protocol ([Zhou et al., 2022]). The CAKI-2 cells were initially rinsed with PBS to remove any residual culture medium. Subsequently, cells were lysed using a RIPA buffer supplemented with 1 mM phenylmethylsulfonyl fluoride (PMSF), and the lysate was incubated on ice for a duration of 1 h. The lysate was centrifuged at a speed of 13,000 rpm for 30 min at 4°C. Protein concentrations were quantified using a BCA protein assay kit (Beyotime, Shanghai, China), ensuring equal protein loading for each sample. Samples were then resolved by SDS-PAGE and transferred onto a polyvinylidene difluoride (PVDF) membrane. Subsequently, the membrane was blocked with 3% BSA in PBS at room temperature for 2 h and incubated overnight with the corresponding antibody at 4°C. After washing to remove unbound primary antibodies, the membrane was incubated with horseradish peroxidase (HRP)-conjugated secondary antibodies for a period of 1 h at room temperature. The specific protein bands were visualized using ECL detection system (Tanon, Shanghai, China), and the band intensities were quantified using ImageJ software."}, "[2]": {"test_system": "panel of 76 human kinases", "assay": "SelectScreen kinase selectivity panel", "assay_type": "biochemical", "method": "The kinase selectivity profile of BST-4 was performed by the SelectScreen kinase profiling service (Thermo Fisher Scientific). Kinase selectivity assay was performed using Z′-LYTE ™ screening protocol kit. Briefly, the test compounds were screened in 1% DMSO (final). For 10-point titrations, perform a 3-fold dilution starting at a starting concentration of 50 µM. Then 2.5 µL 4× test compound, 2.4 µL kinase buffer, 5 µL 2× kinase mixture and 2.5 µL 4× ATP solution was added in black 384-well plate. After shaking for 30 s, the plates were incubated for 60 min at room temperature. Add developing reagent solution and shake the plate for 30 s, then incubate for 1 h at room temperature. The Fluorescence intensity per well was read using a fluorescence plate reader. SelectScreen® Kinase Profiling Service used XLfit from IDBS. The dose response curve was curve fit to model number 205 (sigmoidal dose-response model) and inhibition rates were calculated. 50% inhibition was used as a activity threshold. IC50 values were calculated based on curve fitting."}, "PBMCs": {"test_system": "PBMCs", "assay": "MTT cytotoxicity assay", "assay_type": "cell-based", "settings": "PBMC, 48 h treatment, read-out: IC50 (μM) ± SD PBMCs", "method": "as §2"}, "STAT5b": {"biological_target": "STAT5b (Homo sapiens, UniProt P51692)", "sequence (P51692 whole entry)": "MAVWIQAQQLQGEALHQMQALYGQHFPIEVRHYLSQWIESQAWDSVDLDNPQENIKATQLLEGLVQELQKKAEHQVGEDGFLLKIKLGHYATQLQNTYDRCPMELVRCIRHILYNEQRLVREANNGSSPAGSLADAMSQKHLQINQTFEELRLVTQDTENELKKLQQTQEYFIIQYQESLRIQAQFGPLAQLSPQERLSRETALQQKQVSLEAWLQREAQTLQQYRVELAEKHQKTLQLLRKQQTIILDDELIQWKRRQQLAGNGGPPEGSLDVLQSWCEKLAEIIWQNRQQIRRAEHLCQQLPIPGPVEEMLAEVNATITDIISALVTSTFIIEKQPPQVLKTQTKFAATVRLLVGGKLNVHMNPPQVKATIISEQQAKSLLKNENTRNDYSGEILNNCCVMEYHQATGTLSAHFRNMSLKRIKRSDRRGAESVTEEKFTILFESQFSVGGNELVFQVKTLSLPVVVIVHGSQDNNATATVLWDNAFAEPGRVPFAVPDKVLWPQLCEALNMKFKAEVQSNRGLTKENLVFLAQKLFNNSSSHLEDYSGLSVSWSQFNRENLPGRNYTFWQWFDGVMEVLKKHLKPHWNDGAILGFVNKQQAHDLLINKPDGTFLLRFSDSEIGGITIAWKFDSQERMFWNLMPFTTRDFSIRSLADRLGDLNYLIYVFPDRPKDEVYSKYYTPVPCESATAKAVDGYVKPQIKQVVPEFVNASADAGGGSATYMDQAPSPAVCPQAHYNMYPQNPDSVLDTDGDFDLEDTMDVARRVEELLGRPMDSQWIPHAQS", "assay": "Binding affinity to BET and STAT family members"}}}
{"compound": "CCS(=O)(=O)Cc1cnc(Oc2c(F)cc(F)cc2OCCCCOc2ccc(/C=C/c3cc(OC)cc(OC)c3)cc2)c(-c2cc(C)c3c(=O)[nH]ccn23)c1", "note": "[BST-4]", "values": [{"measurement": "tumor growth (tumor volume) in CAKI-2 xenograft", "setting": "CAKI-2 xenograft tumors", "result": "significantly inhibited tumor growth"}, {"measurement": "IC50", "setting": "BRD4", "result": "0.00245 ± 0.00011", "unit": "µM"}, {"measurement": "BRD4 inhibition relative to RVX-208", "setting": "BRD4; IC50 ratio vs RVX-208", "result": "about 16 fold"}, {"measurement": "IC50", "setting": "CAKI-2 cells; Homo sapiens, CAKI-2, cell growth, 48 h treatment, read-out: IC50 (μM) ± SD CAKI-2", "result": "0.76 ± 0.05", "unit": "µM"}, {"measurement": "cell inhibitory rate (%) against CAKI-2 cells", "setting": "CAKI-2 cells; all compounds at the same concentration", "result": "more than 95%"}, {"measurement": "levels of representative hematological markers (WBC, RBC, PLT, HGB) vs vehicle", "setting": "[1]", "result": "no significant differences"}, {"measurement": "Kd", "setting": "STAT1", "result": "> 10", "unit": "µM"}, {"measurement": "IC50", "setting": "EPHA7", "result": "> 10", "unit": "µM"}, {"measurement": "inhibition at 1 µM", "setting": "EPHA7", "result": 0.91, "unit": "%"}, {"measurement": "IC50", "setting": "FLT1", "result": "> 10", "unit": "µM"}, {"measurement": "inhibition at 1 µM", "setting": "FLT1", "result": 0.14, "unit": "%"}, {"measurement": "IC50", "setting": "LTK", "result": "> 10", "unit": "µM"}, {"measurement": "inhibition at 1 µM", "setting": "LTK", "result": 0.21, "unit": "%"}, {"measurement": "IC50", "setting": "FRK", "result": "> 10", "unit": "µM"}, {"measurement": "inhibition at 1 µM", "setting": "FRK", "result": 0.95, "unit": "%"}, {"measurement": "STAT3 phosphorylation in CAKI-2 cells", "setting": "STAT3 phosphorylation", "result": "significantly decreased"}, {"measurement": "inhibition of all 76 kinases at 1 µM", "setting": "[2]; 1 µM", "result": "less than 10%"}, {"measurement": "IC50", "setting": "[2]; read-out: IC50 on panel of 76 human kinases, all kinases of the panel", "result": "> 10", "unit": "µM"}, {"measurement": "IC50", "setting": "PBMCs", "result": "> 10", "unit": "µM"}, {"measurement": "Kd", "setting": "STAT5b", "result": "> 10", "unit": "µM"}]}
